Tested on: stage II and III CRC
Test: Kaplan-Meier DFS and OS estimates in validation cohort patients treated with 5-FU-based adjuvant chemotherapy
Assay type: in vivo
Conditions: 167 stage II and III CRC patients, 5-FU-based adjuvant chemotherapy for 6 months after tumor resection
Description: Validation Patient Cohort. This group included a total of 237 CRC patients (65 stage II, 102 stage III, and 70 stage IV) that were enrolled as part of a clinical trial conducted at the Hospital Clinic, Barcelona, Spain. Patients in this clinical trial were enrolled between 1996 and 2008, and the median follow-up was 4.7 years in patients that were alive at last follow-up, and 3.5 years for all patients. All stage II and III patients were treated with 5-FU-based adjuvant chemotherapy following resection of the primary tumor; all stage IV patients were treated with 5-FU and oxaliplatin (Takahashi, et al., 2012). Normal colonic mucosa (n=20) from healthy individuals was obtained from the Pathology Department of the Hospital Clinic of Barcelona and included as controls. This study was approved by the Institutional Review Board (IRB) of Hospital Clinic, Barcelona, Spain, and a written informed consent was obtained from all patients.
Distributions in the validation cohort are presented as mean (SD) or median (range) depending on level of skewness in the data for continuous variables, or as counts (percentage) for categorical variables. Nonparametric tests (rank sum, Kruskal Wallace) were used to compare expression between groups. Kaplan Meier and Cox regression models were used to assess association with time to event outcomes that included overall survival (OS), defined as time from diagnosis to death, and disease free survival (DFS) defined as time from diagnosis to disease recurrence or death. Due to the scale of miR320e expression, hazard ratios are presented as the change in risk of a person at the 75th percentile relative to a person at the 25th percentile of miR-320e distribution. This can be interpreted as the increase in risk due to a patient moving from the middle of the bottom half of the miR-320e distribution to the middle of the top half of the distribution. Bootstrapping was used to calculate an optimism corrected c-index, analogous to the area under the receiver operating characteristic curve (Steyerberg, et al., 2011). A c-index of 0.5 denotes random predictions, whereas a c index of 1 denotes perfect predictions.
Higher expression miR320e is associated with poor outcome in patients with stage II and III CRC. To determine the potential prognostic significance of miR-320e expression, Cox regression models were utilized with the miRNA expression levels considered as continuous variables. There were 167 stage II and III CRC patients in the validation cohort with sufficient data for these analyses. All of these patients were treated with 5-FU-based adjuvant chemotherapy for 6 months subsequent to tumor resection. Of these patients, 65 out of 167 (38.9%) were stage II and the remainder were stage III. […]

## O=c1[nH]cc(F)c(=O)[nH]1 [5-FU, 5-fluorouracil]
2 years
  2-year Kaplan-Meier DFS estimate: 78.32%
  2-year OS estimate: 91.57%
5 years
  5-year Kaplan-Meier DFS estimate: 63.96%
  5-year OS estimate: 78.52%

From patent US10260105B2, “MiR-320e and colorectal cancer” (BAYLOR RESEARCH INSTITUTE, priority 2014, dated 2019)
